Measured values as given in US10703971B2, “Chemiluminescent substrates” (Beckman Coulter, Inc., priority 2016, dated 2020).

Key:
alkaline phosphatase [1] = assay: Stability Test A: luminescence of the AP substrate formulation in a micro-titer plate after injection of AP; format: biochemical; details: 50% more of the named component added to a single lot of APS-5
Protocol: An aliquot (100 μL) of AP substrate formulation was added to a micro-titer plate well (8 replicates for each formulation). The plate was placed in a luminescence plate reader (Luminoskan, Labtech) and to each well was injected 20 μL of AP solution (2 ng/mL). Luminescence signal was read after 30 seconds and intergraded for 2 seconds.

alkaline phosphatase [2] = assay: Alternative cationic aromatic compounds, Imax on Turner 20/20e luminometer; details: compound used as cationic aromatic compound (CAC) in the formulation
[3] = tested on: Beckman Coulter System Check ALP; assay: Stability of chemiluminescent compounds I in two buffer systems, signal RLU of samples stored at two temperatures; format: biochemical
Protocol: 3.25 mg/L Lucigenin, 10 mg/L Sodium Sulfite. The second was based on the present invention and included AMPD 0.1 M pH 9.70 containing 0.5 g/L STS, 1 g/L PEG (Mw=35,000), 3.25 mg/L Lucigenin, 10 mg/L Sodium Sulfite. Various chemiluminescent compounds I shown below were added to 200 mL aliquots of each buffer at 0.15 g/L.
Each formulation was split into ˜100 mL halves with one kept at ˜5° C. and the other kept at −30° C.
Material was tested periodically over two weeks measuring the relative change in signal RLU between the two storage conditions. Formulations were tested in 96-well plates by comparing samples at stored at two temperatures to reduce the variability associated with enzymes/temperature/day to day. The samples were incubated at 37° C. for 30 minutes on the instrument 20 uL of enzyme (prepared by mixing 1 mL of Beckman Coulter System Check ALP with 640 mL of the Sample Diluent Buffer) were injected into 200 uL of formulation. Kinetic signal was measured at ˜29 seconds after injection of ALP solution. 15-16 data points (wells) were measured for each Buffer/Temperature/Time point (Well A1 is excluded due to variation in injection volume).

| Compound | I max RLU (Turner 20/20e luminometer with filter) (alkaline phosphatase [2]) [RLU] | further results |
| --- | --- | --- |
| O=S([O-])[O-].[Na+].[Na+] [Sodium Sulfite, sodium sulfite] |  | Performance (alkaline phosphatase [1]): 100.1% |
| C1=c2cc[n+]3c(c2=CCC1)-c1c2c(cc[n+]1CC3)=CCCC=2 | 500 |  |
| C[n+]1c2ccccc2c(-c2c3ccccc3[n+](C)c3ccc(Cl)cc23)c2cc(Cl)ccc21 | 454 |  |
| C[n+]1c2ccccc2c(-c2c3ccccc3cc3ccccc23)c2cc(Cl)ccc21 | 1037 |  |
| CCCCCCCCCCCCOS(=O)(=O)[O-].[Na+] [SDS, sodium dodecyl sulfate] |  | Performance (alkaline phosphatase [1]): 70.5% |
| C[n+]1ccc2c(c1-c1c3c(cc[n+]1C)=CCCC=3)=CCCC=2 | 41 |  |
| C[n+]1c2ccccc2c(-c2c3ccccc3[n+](C)c3ccc(Cl)cc23)c2ccccc21 | 1600 |  |
| CN1c2ccccc2C(=C(OP(=O)(O)O)Sc2ccccc2)c2ccccc21 [Compound 3] |  | Signal Loss at 30° C. (slope, % loss/Day) ([3]; 0.15 g/L compound in AMPD buffer system (AMPD 0.1 M pH 9.70, STS, PEG 35,000, lucigenin, sodium sulfite)): 0.53% loss/Day; Signal Loss at 30° C. (slope, % loss/Day) ([3]; 0.15 g/L compound in TRIS-Tween buffer system (Tris 0.3 M pH 9.35, SDS, Tween-20, lucigenin, sodium sulfite)): 0.61% loss/Day |
